The CheMixHub viscosity set
± gives the uncertainty stated by the source.

Test: xn = mol fraction of the nth substance listed

C=CC#N + CCCCCCO
viscosity [mPa·s], 101.33 kPa
Conditions | x1 = 0.1023 | x1 = 0.2036 | x1 = 0.3089 | x1 = 0.4105 | x1 = 0.5081 | x1 = 0.6117 | x1 = 0.7084 | x1 = 0.8056 | x1 = 0.9019
298.15 K | 3.139 ± 0.037 | 2.308 ± 0.028 | 1.705 ± 0.021 | 1.3 ± 0.016 | 1.006 ± 0.013 | 0.774 ± 0.01 | 0.617 ± 0.009 | 0.495 ± 0.007 | 0.41 ± 0.006
303.15 K | 2.727 ± 0.032 | 2.03 ± 0.025 | 1.522 ± 0.019 | 1.175 ± 0.015 | 0.916 ± 0.012 | 0.712 ± 0.01 | 0.571 ± 0.008 | 0.466 ± 0.007 | 0.388 ± 0.006
308.15 K | 2.38 ± 0.029 | 1.799 ± 0.022 | 1.365 ± 0.017 | 1.063 ± 0.014 | 0.84 ± 0.011 | 0.661 ± 0.009 | 0.533 ± 0.008 | 0.439 ± 0.007 | 0.37 ± 0.006

CC(C)(N)CO + C1CNCCN1
viscosity [mPa·s], 101 kPa
Conditions | x2 = 0.02 | x2 = 0.04 | x2 = 0.06 | x2 = 0.08 | x2 = 0.1 | x2 = 0.12 | x2 = 0.14 | x2 = 0.16 | x2 = 0.18
303.15 K | 95.41 ± 4 | 91.27 ± 3.8 | 86.75 ± 3.6 | 83 ± 3.4 | 79.54 ± 3.3 | 76.81 ± 3.2 | 74.64 ± 3.1 | 71.81 ± 2.9 | 71 ± 2.9
313.15 K | 43.72 ± 1.8 | 41.54 ± 1.7 | 38.97 ± 1.6 | 37.34 ± 1.5 | 36.06 ± 1.5 | 35.06 ± 1.4 | 34.1 ± 1.4 | 33.76 ± 1.4 | 33.69 ± 1.4
323.15 K | 24.41 ± 1 | 23.46 ± 0.96 | 22.58 ± 0.93 | 21.64 ± 0.89 | 20.53 ± 0.84 | 19.63 ± 0.81 | 18.74 ± 0.77 | 17.8 ± 0.73 | 17.07 ± 0.7

CCCCOC(=O)c1ccccc1C(=O)OCCCC + CCCCO
303.15 K, 101.33 kPa
Conditions | viscosity [mPa·s]
x1 = 0.1016 | 2.585 ± 0.015
x1 = 0.1991 | 3.095 ± 0.018
x1 = 0.2997 | 3.757 ± 0.022
x1 = 0.4016 | 4.553 ± 0.026
x1 = 0.5004 | 5.431 ± 0.031
x1 = 0.5969 | 6.463 ± 0.035
x1 = 0.6966 | 7.645 ± 0.04
x1 = 0.8044 | 9.216 ± 0.047
x1 = 0.8662 | 10.27 ± 0.052

CCC(C)(C)O + O
298.15 K, 101 kPa
Conditions | viscosity [mPa·s]
x2 = 0.0042 | 3.548 ± 0.033
x2 = 0.0429 | 3.711 ± 0.036
x2 = 0.0863 | 3.875 ± 0.04
x2 = 0.124 | 3.987 ± 0.043
x2 = 0.1654 | 4.122 ± 0.047
x2 = 0.197 | 4.218 ± 0.05
x2 = 0.214 | 4.269 ± 0.051
x2 = 0.2583 | 4.388 ± 0.056
x2 = 0.2775 | 4.443 ± 0.058

C=CC#N + CC#N
303.15 K, 101.3 kPa
Conditions | viscosity [mPa·s]
x1 = 0.0965 | 0.3219 ± 0.0031
x1 = 0.2002 | 0.3193 ± 0.0031
x1 = 0.2977 | 0.3185 ± 0.0031
x1 = 0.3966 | 0.3178 ± 0.0031
x1 = 0.4928 | 0.3169 ± 0.003
x1 = 0.5983 | 0.3154 ± 0.003
x1 = 0.6941 | 0.3147 ± 0.003
x1 = 0.7977 | 0.3136 ± 0.003
x1 = 0.8997 | 0.3124 ± 0.003

CC(C)(C)Br + CC(C)CO
viscosity [mPa·s], 101.3 kPa
Conditions | x1 = 0.1028 | x1 = 0.2047 | x1 = 0.3013 | x1 = 0.4041 | x1 = 0.5068 | x1 = 0.6029 | x1 = 0.7033 | x1 = 0.8031 | x1 = 0.905
298.15 K | 2.582 ± 0.02 | 2.021 ± 0.017 | 1.64 ± 0.014 | 1.351 ± 0.012 | 1.138 ± 0.011 | 0.9943 ± 0.0099 | 0.8866 ± 0.0093 | 0.8146 ± 0.009 | 0.757 ± 0.0088
313.15 K | 1.718 ± 0.016 | 1.405 ± 0.013 | 1.168 ± 0.011 | 0.9825 ± 0.0094 | 0.8486 ± 0.0084 | 0.7553 ± 0.0078 | 0.688 ± 0.0074 | 0.6382 ± 0.0073 | 0.6044 ± 0.0072

[2H]O[2H] + C1COCCO1
viscosity [mPa·s], 101 kPa
Conditions | 303.1 K | 313.1 K | 323.1 K
x1 = 0.1561 | 1.112 ± 0.018 | 0.944 ± 0.016 | 0.817 ± 0.014
x1 = 0.1831 | 1.154 ± 0.018 | 0.972 ± 0.016 | 0.831 ± 0.014
x1 = 0.3467 | 1.317 ± 0.02 | 1.092 ± 0.017 | 0.918 ± 0.015
x1 = 0.522 | 1.585 ± 0.024 | 1.289 ± 0.02 | 1.06 ± 0.017
x1 = 0.5977 | 1.728 ± 0.025 | 1.378 ± 0.021 | 1.128 ± 0.018
x1 = 0.6534 | 1.836 ± 0.027 | 1.447 ± 0.022 | 1.172 ± 0.018
x1 = 0.7431 | 1.968 ± 0.029 | 1.529 ± 0.023 | 1.233 ± 0.019
x1 = 0.8126 | 1.959 ± 0.029 | 1.52 ± 0.023 | 1.213 ± 0.019
x1 = 0.8683 | 1.754 ± 0.026 | 1.367 ± 0.021 | 1.098 ± 0.017
x1 = 0.9108 | 1.528 ± 0.023 | 1.199 ± 0.019 | 0.97 ± 0.016
x1 = 0.9466 | 1.321 ± 0.021 | 1.047 ± 0.017 | 0.853 ± 0.015
x1 = 0.9747 | 1.131 ± 0.018 | 0.905 ± 0.015 | 0.742 ± 0.013

CCCC[P+](CC)(CC)CC.N#Cc1ccc[n-]1 + OCC(O)CO
100 kPa
Conditions | viscosity [mPa·s]
293.15 K, x1 = 0.259 | 933 ± 140
293.15 K, x1 = 0.34 | 737 ± 110
298.15 K, x1 = 0.004 | 876 ± 130
298.15 K, x1 = 0.018 | 953 ± 140
298.15 K, x1 = 0.129 | 932 ± 140
298.15 K, x1 = 0.187 | 768 ± 120
303.15 K, x1 = 0.058 | 695 ± 100
303.15 K, x1 = 0.08 | 692 ± 100

O=C1c2ccccc2C(=O)C1(O)O + CCCC[N+](CCCC)(CCCC)CCCC.O=S(=O)([O-])O
Conditions | viscosity [mPa·s]
323.15 K, 100 kPa, x2 = 0.571 | 48500
